Among the data in patent US10894784B2, “Heteroarylbenzimidazole compounds” (BAYER PHARMA AKTIENGESELLSCHAFT, priority 2015, dated 2021) are IC50 values, retold here.

For this test, the target named is TBK1 (Homo sapiens (Human), UniProt Q9UHD2). Nature of the test: TBK1 low ATP kinase assay (in vitro assay 1). It is filed as biochemical. Particulars: in vitro assay 1, read-out: TBK1 low ATP kinase assay IC50.
Chain of TBK1 (Q9UHD2 whole entry): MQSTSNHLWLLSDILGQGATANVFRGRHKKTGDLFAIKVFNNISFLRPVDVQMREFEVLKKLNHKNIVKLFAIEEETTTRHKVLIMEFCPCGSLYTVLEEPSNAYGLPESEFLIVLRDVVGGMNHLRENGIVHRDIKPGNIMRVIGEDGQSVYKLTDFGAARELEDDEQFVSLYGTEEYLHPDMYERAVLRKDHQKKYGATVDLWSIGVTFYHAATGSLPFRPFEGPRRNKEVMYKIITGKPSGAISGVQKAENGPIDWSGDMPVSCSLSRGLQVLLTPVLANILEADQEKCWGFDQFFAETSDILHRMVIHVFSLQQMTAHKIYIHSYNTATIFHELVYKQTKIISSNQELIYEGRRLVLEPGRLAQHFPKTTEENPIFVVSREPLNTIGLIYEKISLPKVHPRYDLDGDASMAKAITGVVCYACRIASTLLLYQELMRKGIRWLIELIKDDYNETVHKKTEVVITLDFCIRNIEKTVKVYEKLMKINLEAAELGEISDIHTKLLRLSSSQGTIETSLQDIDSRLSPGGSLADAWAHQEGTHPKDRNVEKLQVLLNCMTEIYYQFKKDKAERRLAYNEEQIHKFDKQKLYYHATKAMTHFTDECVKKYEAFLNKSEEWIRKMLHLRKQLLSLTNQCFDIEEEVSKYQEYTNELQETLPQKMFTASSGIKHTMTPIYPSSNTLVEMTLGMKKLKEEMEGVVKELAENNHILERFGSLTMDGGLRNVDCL
Consider `CC(c1ccnc(Nc2nc3ccc(-c4ccncn4)cc3[nH]2)c1)N1CCN(C(=O)CC(F)(F)F)CC1` (single isomer, unassigned) [Example 23.05.02.B, 3,3,3-trifluoro-1-{4-[(1S or 1R)-1-(2-{[6-(pyrimidin-4-yl)-1H-benzimidazol-2-yl]amino}pyridin-4-yl)ethyl]piperazin-1-yl}propan-1-one], for which the IC50 turned out to be 0.00186 µM.

In the case of `CCOc1ncnc(-c2ccc3nc(Nc4cc(CN5CCN(C(=O)C6(C(F)(F)F)CC6)CC5)ccn4)[nH]c3c2)c1OC` [Example 167.04], the IC50 is 0.0237 µM.

Regarding `CSc1ncc(-c2ccc3nc(Nc4cc(CN5CCN(C(=O)CC(F)(F)F)CC5)ccn4)[nH]c3c2)cn1` [Example 45.05.01, 3,3,3-trifluoro-1-(4-{[2-({6-[2-(methylsulfanyl)pyrimidin-5-yl]-1H-benzimidazol-2-yl}amino)pyridin-4-yl]methyl}piperazin-1-yl)propan-1-one], the 50% inhibitory concentration (IC50) worked out at 1.43 µM.

Regarding `N#Cc1cnccc1-c1ccc2nc(Nc3cc(CN4CCN(C(=O)C5CC5)CC4)ccn3)[nH]c2c1` [Example 103.01, 4-{2-[(4-{[4-(cyclopropylcarbonyl)piperazin-1-yl]methyl}pyridin-2-yl)amino]-1H-benzimidazol-6-yl}pyridine-3-carbonitrile], the IC50 worked out at 0.36 µM.

Take `O=C(CC(F)(F)F)N1CCN(Cc2ccnc(Nc3nc4ccc(-c5ccn[nH]5)cc4[nH]3)c2)CC1` [Example 124.02, 3,3,3-trifluoro-1-{4-[(2-{[6-(1H-pyrazol-5-yl)-1H-benzimidazol-2-yl]amino}pyridin-4-yl)methyl]piperazin-1-yl}propan-1-one]: the IC50 is 0.1 µM.

On to `Cc1nc(-c2ccc3nc(Nc4cc(CN5CCN(C(=O)CC(F)(F)F)CC5)ccn4)[nH]c3c2)cc(N(C)C)n1` [Example 190.02, 1-(4-{[2-({6-[6-(dimethylamino)-2-methylpyrimidin-4-yl]-1H-benzimidazol-2-yl}amino)pyridin-4-yl]methyl}piperazin-1-yl)-3,3,3-trifluoropropan-1-one], for which the 50% inhibitory concentration (IC50) amounted to 0.868 µM.

For `Cc1nccc(-c2ccc3nc(Nc4cc(C(C)N5CCN(C(=O)C6CC6)CC5)ccn4)[nH]c3c2)n1` (single isomer, unassigned) [Example 24.05.04.B, cyclopropyl{4-[(1S or 1R)-1-(2-{[6-(2-methylpyrimidin-4-yl)-1H-benzimidazol-2-yl]amino}pyridin-4-yl)ethyl]piperazin-1-yl}methanone], the IC50 is 0.0339 µM.

As to `Cc1c[nH]c(-c2ccc3nc(Nc4cc(CN5CCN(C(=O)C6CC6)CC5)ccn4)[nH]c3c2)n1` [Example 43.02, cyclopropyl{4-[(2-{[6-(4-methyl-1H-imidazol-2-yl)-1H-benzimidazol-2-yl]amino}pyridin-4-yl)methyl]piperazin-1-yl}methanone], the IC50 was found to be 1.84 µM.

For `CCOc1cnc(C)cc1-c1ccc2nc(Nc3cc(CN4CCN(C(=O)C5CC5)CC4)ccn3)[nH]c2c1` [Example 09.02, cyclopropyl{4-[(2-{[6-(5-ethoxy-2-methylpyridin-4-yl)-1H-benzimidazol-2-yl]amino}pyridin-4-yl)methyl]piperazin-1-yl}methanone], the IC50 was 0.297 µM.

Regarding `Cn1ccc(-c2ccc3nc(Nc4cc(CN5CCN(C(=O)C6CCC6)CC5)ccn4)[nH]c3c2)n1` [Example 40.04, cyclobutyl{4-[(2-{[6-(1-methyl-1H-pyrazol-3-yl)-1H-benzimidazol-2-yl]amino}pyridin-4-yl)methyl]piperazin-1-yl}methanone], the IC50 came to 1.39 µM.

As for `CCc1nccc(-c2ccc3nc(Nc4cc(CN5CCN(C(=O)OC(C)(C)C)CC5)ccn4)[nH]c3c2)n1` [Example 28.01, tert-butyl 4-[(2-{[6-(2-ethylpyrimidin-4-yl)-1H-benzimidazol-2-yl]amino}pyridin-4-yl)methyl]piperazine-1-carboxylate], the IC50 stood at 0.111 µM.

On to `CN(C)c1cc(-c2ccc3nc(Nc4cc(CN5CCN(C(=O)C6CC6)CC5)ccn4)[nH]c3c2)ncn1` [Example 143.03, cyclopropyl(4-{[2-({6-[6-(dimethylamino)pyrimidin-4-yl]-1H-benzimidazol-2-yl}amino)pyridin-4-yl]methyl}piperazin-1-yl)methanone], for which the IC50 turned out to be 0.0048 µM.

For `CC(c1ccnc(Nc2nc3ccc(-c4cc(C(F)(F)F)ncn4)c(F)c3[nH]2)c1)N1CCN(C(=O)C2(C(F)(F)F)CC2)CC1` (single isomer, unassigned) [Example 173.04, (4-{(1R or 1S)-1-[2-({7-fluoro-6-[6-(trifluoromethyl)pyrimidin-4-yl]-1H-benzimidazol-2-yl}amino)pyridin-4-yl]ethyl}piperazin-1-yl)[1-(trifluoromethyl)cyclopropyl]methanone], the IC50 came out at 0.149 µM.

As for `Cc1cc(-c2ccc3nc(Nc4cc(C(C)N5CCN(C(=O)C6CC6)CC5)ccn4)[nH]c3c2Cl)ncn1` (stereo not shown) [Example 98.03, {4-[(1R or IS)-1-(2-{[7-chloro-6-(6-methylpyrimidin-4-yl)-1H-benzimidazol-2-yl]amino}pyridin-4-yl)ethyl]piperazin-1-yl}(cyclopropyl)methanone], the IC50 was 0.076 µM.

As for `CC(c1ccnc(Nc2nc3ccc(-c4cc(N5CCCC5)ncn4)cc3[nH]2)c1)N1CCN(C(=O)OC(C)(C)C)CC1` (single isomer, unassigned) [Example 117.01, tert-butyl 4-{(1R or 1S)-1-[2-({6-[6-(pyrrolidin-1-yl)pyrimidin-4-yl]-1H-benzimidazol-2-yl}amino)pyridin-4-yl]ethyl}piperazine-1-carboxylate], the IC50 came out at 0.002 µM.

Consider `COc1cncnc1-c1ccc2nc(Nc3cc(CN4CCN(C(=O)C5CC5)CC4)ccn3)[nH]c2c1` [Example 35.01.02, cyclopropyl{4-[(2-{[6-(5-methoxypyrimidin-4-yl)-1H-benzimidazol-2-yl]amino}pyridin-4-yl)methyl]piperazin-1-yl}methanone], for which the IC50 is 0.018 µM.

Consider `CN(C)c1nccnc1-c1ccc2nc(Nc3cc(CN4CCN(C(=O)CC(F)(F)F)CC4)ccn3)[nH]c2c1` [Example 196.02, 1-(4-{[2-({6-[3-(dimethylamino)pyrazin-2-yl]-1H-benzimidazol-2-yl}amino)pyridin-4-yl]methyl}piperazin-1-yl)-3,3,3-trifluoropropan-1-one], for which the IC50 worked out at 1.83 µM.

Take `CC(c1ccnc(Nc2nc3ccc(-c4cc(OCC(F)(F)C(F)(F)F)ncn4)cc3[nH]2)c1)N1CCN(C(=O)C2CC2)CC1` (single isomer, unassigned) [Example 166.03, cyclopropyl(4-{(1R or 1S)-1-[2-({6-[6-(2,2,3,3,3-pentafluoropropoxy)pyrimidin-4-yl]-1H-benzimidazol-2-yl}amino)pyridin-4-yl]ethyl}piperazin-1-yl)methanone]: the IC50 was 0.0211 µM.

Turning to `COc1nccc(-c2ccc3nc(Nc4cc(CN5CCN(C(=O)OC(C)(C)C)CC5)ccn4)[nH]c3c2)n1` [Example 25.01.01, tert-butyl 4-[(2-{[6-(2-methoxypyrimidin-4-yl)-1H-benzimidazol-2-yl]amino}pyridin-4-yl)methyl]piperazine-1-carboxylate], the IC50 came to 0.174 µM.

As usually defined, the IC50 is the concentration at which inhibition is half-maximal.
